The test system of one assay is 3T3-L1 adipocytes. The assay is described as follows: Glucose uptake in differentiated 3T3-L1 adipocytes. In kind it is cell-based. As to the method: Referring to FIG. 8 glucose uptake in 3T3-L1 differentiated adipocytes was measured after treatment with the test compound. The assay was conducted according to the method of Tafuri, Endocrinology, 137, 4706-4712 (1996). The serum-starved cells were treated with the test compound for 48 hours at different concentrations, then washed and incubated in glucose-free media for 30 minutes at 37° C. Then ^14C-deoxyglucose was added and uptake was monitored for 30 minutes under incubation. After washing, the cells were lysed (0.1% SIDS) and counted.
Basal glucose uptake was measured in differentiated 3T3-L1 adipocytes following the protocol of Tafuri (6) with modifications. Briefly, 3T3-L1 fibroblasts, obtained from ATCC (Manassas, Va.), were differentiated to adipocytes by treating cells with porcine insulin (1 μg/ml for 4 days), dexamethasone (0.25 μM for first 2 days) and isobutyl methyl xanthine (IBMX, 0.5 mM for first 2 days) (all from Sigma Chemicals, St Louis, Mo.) following the protocol of Frost and Lane (7). Differentiated adipocytes were incubated in Dulbecco's Modified Eagle Medium (DMEM) containing 10% fetal bovine serum (GibcoBRL, Gaithersburg, Md.) with various concentrations of Compound 11 or vehicle (0.1% DMSO) for 48 h in 24-well plates, in triplicate. Cells were washed with phosphate buffered saline (PBS, 150 mM NaCl, 1 mM KH2PO4, 3 mM Na2HPO4; pH 7.4) and incubated in glucose-free DMEM for 2 h at 37° C. The cells were washed 3 times with Krebs Ringer Phosphate Buffer (KRP). Glucose uptake was initiated by addition of 0.25 μCi 2-^14C(U)-deoxy-D-glucose (300 μCi/mmol, American Radiolabeled Chemicals Inc., St Louis, Mo.) per well and the cells incubated for 10 min at room temperature in the presence of 0.1 mmol cold 2-deoxy-D-glucose. Finally, the cells were washed three times with ice-cold PBS containing 10 mM cold glucose, lysed with 0.5% SDS, and counted in a scintillation counter (Beckman LS6500).

A further assay concerns the target T1, COX-2 (Mus musculus, UniProt Q05769).
T1 sequence (Q05769 18-604): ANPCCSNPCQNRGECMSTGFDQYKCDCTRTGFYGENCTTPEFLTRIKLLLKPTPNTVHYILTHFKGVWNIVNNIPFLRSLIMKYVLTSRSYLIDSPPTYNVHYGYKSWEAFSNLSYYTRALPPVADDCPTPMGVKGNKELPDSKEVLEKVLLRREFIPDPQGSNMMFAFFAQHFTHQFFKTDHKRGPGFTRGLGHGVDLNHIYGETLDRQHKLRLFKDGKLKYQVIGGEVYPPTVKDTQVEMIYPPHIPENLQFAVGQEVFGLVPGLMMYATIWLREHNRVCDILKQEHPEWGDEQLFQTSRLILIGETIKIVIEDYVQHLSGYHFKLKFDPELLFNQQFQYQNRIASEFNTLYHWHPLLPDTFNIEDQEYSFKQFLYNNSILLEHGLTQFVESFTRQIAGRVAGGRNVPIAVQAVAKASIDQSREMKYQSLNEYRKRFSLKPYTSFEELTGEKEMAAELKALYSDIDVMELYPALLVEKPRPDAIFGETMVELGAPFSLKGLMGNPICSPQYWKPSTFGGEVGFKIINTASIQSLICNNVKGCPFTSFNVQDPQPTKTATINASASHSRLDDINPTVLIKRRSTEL
The assay is described as follows: LPS-induced COX-2 activity in RAW cells (PGE2 production). In kind it is cell-based. Particulars: 0.1-100 μM, FIG. 12. On the procedure: (§1) After 1 hour LPS (0.1 pg/mL) was added and cells were incubated an additional 6 hours. Cell supernatant was then collected, aliquoted and frozen at −70° C., and aliquots used to determine COX-2 and COX-1 activity. Compound 11, but not rosiglitazone, inhibited the activity of COX-2 (as measured by PGE2 production in a 50 μl sample).

Another assay has as its target T2, COX-1 (Mus musculus, UniProt P22437).
T2 construct: aliquots used to determine COX-2 and COX-1 activity; endogenous in cells; host or cells: RAW (RAW 264.7) cells
T2 sequence (P22437 27-602): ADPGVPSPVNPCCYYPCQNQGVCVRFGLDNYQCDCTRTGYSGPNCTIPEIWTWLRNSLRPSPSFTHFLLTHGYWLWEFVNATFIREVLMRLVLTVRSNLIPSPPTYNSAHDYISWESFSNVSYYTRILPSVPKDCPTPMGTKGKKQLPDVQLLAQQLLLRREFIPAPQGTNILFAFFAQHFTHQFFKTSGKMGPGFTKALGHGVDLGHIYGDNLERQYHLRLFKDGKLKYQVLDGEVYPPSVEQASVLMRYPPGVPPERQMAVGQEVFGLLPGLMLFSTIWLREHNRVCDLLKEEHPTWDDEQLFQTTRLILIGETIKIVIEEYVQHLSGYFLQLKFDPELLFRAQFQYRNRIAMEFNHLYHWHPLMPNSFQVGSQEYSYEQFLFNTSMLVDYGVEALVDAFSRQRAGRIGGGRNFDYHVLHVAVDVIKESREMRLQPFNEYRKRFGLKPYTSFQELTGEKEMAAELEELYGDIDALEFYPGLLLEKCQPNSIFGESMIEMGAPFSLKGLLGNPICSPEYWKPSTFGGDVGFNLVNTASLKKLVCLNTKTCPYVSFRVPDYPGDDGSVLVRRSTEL
The assay is described as follows: COX-1 activity in RAW cells. In kind it is cell-based. Particulars: 0.1-100 μM. On the procedure: as §1

The subject of the next assay is IkappaB. The assay is described as follows: LPS-stimulated phosphorylation of IkappaB in RAW 264.7 cells. The settings on record: RAW 264.7 cells, 3, 10 or 30, LPS plus IFN-gamma, anti-phospho-IkappaB blot. In kind it is cell-based.
Another assay relates to NF-kB p65. The assay is described as follows: NF-kB p65 activation in LPS-stimulated RAW cells (ELISA). In kind it is cell-based. Particulars: 10 μM, 1 μg/ml LPS 15 min, FIG. 15.
Another assay has as its system HepG2 cells. The assay is described as follows: Glycogen synthesis in HepG2 cells. In kind it is cell-based.
In another assay the test system is db/db mice. Particulars: db/db mice, 50 mg/kg/day orally, 14 days, FIG. 16A.
The subject of another assay is 3T3-L1 fibroblasts. The assay is described as follows: Adipogenesis (triglyceride accumulation) in 3T3-L1 fibroblasts. The settings on record: 3T3-L1 fibroblasts, 0.1, 1, 10 μM, no dexamethasone, insulin, IBMX, FIG. 23A.
The next assay concerns the target T3, PPAR-gamma (Homo sapiens, UniProt P37231).
T3 sequence (P37231 1-505): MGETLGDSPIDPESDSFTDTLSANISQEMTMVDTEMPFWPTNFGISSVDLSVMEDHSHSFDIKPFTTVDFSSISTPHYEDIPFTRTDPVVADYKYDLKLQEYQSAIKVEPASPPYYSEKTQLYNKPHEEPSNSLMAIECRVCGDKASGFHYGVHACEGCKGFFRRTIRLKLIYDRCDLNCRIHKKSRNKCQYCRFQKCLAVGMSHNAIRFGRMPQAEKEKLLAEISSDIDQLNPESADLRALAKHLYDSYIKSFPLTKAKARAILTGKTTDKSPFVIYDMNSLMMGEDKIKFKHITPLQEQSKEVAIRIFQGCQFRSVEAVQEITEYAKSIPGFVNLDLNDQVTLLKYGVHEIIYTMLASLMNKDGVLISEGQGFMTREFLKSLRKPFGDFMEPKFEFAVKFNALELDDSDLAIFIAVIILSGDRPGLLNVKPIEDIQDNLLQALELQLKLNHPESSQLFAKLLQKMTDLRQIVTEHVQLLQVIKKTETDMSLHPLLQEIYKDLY
The settings on record: Rocchi et al, Mol Cell 8:737-47, 2001; cited from earlier work.

Method for 3T3-L1 fibroblasts: After two days of growth in 6-well plates, cells were treated either with vehicle (0.1% DMSO) or with compounds for ten days. Fresh medium with compounds or vehicle was replenished every 48 h. Cells were washed with PBS twice and fixed in 10% formalin (Sigma) in PBS. After washing in PBS, cells were stained with freshly diluted Oil Red O in isopropanol for 1 h at room temperature. The cells were washed five times with PBS and visualized under an Olympus BH2 microscope. Quantitative accumulation of triglyceride was also measured under similar experimental conditions, except in this case cells were plated in 100-mm tissue culture dishes. Triglyceride was extracted with methanol:chloroform (2:1) mixture. […] Extracted triglyceride was measured by a colorimetric assay (GPO-Trinder, Sigma) according to manufacturer instructions.
After 14 days cells were stained with Oil Red O, counterstained with methylene blue for visual assessment (FIG. 23B) and assayed for triglyceride accumulation.

In the case of `CN(CCOc1ccc(CC2SC(=O)NC2=O)cc1)c1ccccn1` (stereo not drawn) [rosiglitazone, reference compound], the “effect on insulin-stimulated glucose uptake” value with 3T3-L1 adipocytes (5 μM with increasing insulin, FIG. 20B) is “additive, not synergistic”. Further, in the assay with 3T3-L1 adipocytes (0.1 μm, average of quadruplicate ± SD), the “% Glucose uptake 0.1 μm” value is 204.2 ± 8.5 % basal of the non treated cells. The “% Glucose uptake 1.0 μm” value in the assay on 3T3-L1 adipocytes (1.0 μm, average of quadruplicate ± SD) is 214.7 ± 36.5 % basal of the non treated cells. For the same compound, the “inhibition of COX-2 activity (PGE2 production)” value on COX-2 is “not”. The “inhibition of COX-1 activity” value against COX-1 was “Neither compound inhibited”. Also, in the assay on IkappaB, the “inhibition of the phosphorylation of IkappaB” value is listed as “not”. Further, in the assay on NF-kB p65, the “inhibition of the activation of NF-kB (p65)” value is on record as “did not inhibit”. For the same compound, the “glycogen synthesis, decrease” value with HepG2 cells (HepG2, 10 μM, 48 h, FIG. 25A) was determined as 0.9 fold. For the same compound, the “increase in glycogen synthesis over baseline” value in the assay with HepG2 cells (HepG2, concentrations higher than 30 μM, ± SD, data not shown) was determined as 1.4±0.06 fold. In addition, in the assay with db/db mice, the “blood glucose lowering effect” value is “dramatic, comparable blood glucose lowering effects”. For the same compound, the “maximal triglyceride accumulated, increase over control” value in the assay on 3T3-L1 fibroblasts is listed as 9.22 fold.

As to `CC(C)C[C@H](NC(=O)OCC1c2ccccc2-c2ccccc21)C(=O)O` [FMOC-L-Leucine], on PPAR-gamma, the “less affinity for PPAR-gamma” value was “approximately 400 fold”.

Source of the values: US20060235062A1, “Novel heterocyclic analogs of diphenylethylene compounds” (THERACOS, INC., priority 2002, published 2006).
